# According to US20130095605A1, “LEAVING SUBSTITUENT-CONTAINING COMPOUND, ORGANIC SEMICONDUCTOR MATERIAL FORMED THEREFROM, ORGANIC ELECTRONIC DEVICE, ORGANIC THIN-FILM TRANSISTOR AND DISPLAY DEVICE USING THE ORGANIC SEMICONDUCTOR MATERIAL, METHOD FOR PRODUCING FILM-LIKE PRODUCT, PI-ELECTRON CONJUGATED COMPOUND AND METHOD FOR …” (RICOH COMPANY, LTD., priority 2010, published 2013):
# Assays:
# [1] = Evaluation of dissolvability (saturated solution in organic solvent); assay type: physicochemical; conditions: reflux 10 min, cooled to room temperature, left 16 hours, filtrated
# Description: Each of the compounds obtained in Examples 1, 3, 5, 6, 7, 8, 9, 10, 11 and 12 and the corresponding specific compounds (24) to (33) was added to toluene, THF, anisole or chloroform (each: […]) until insoluble matter was found. The resultant mixture was stirred for 10 min under reflux of the solvent and cooled to room temperature, followed by stirring for 1 hour. After the mixture had been left to stand still for 16 hours, the supernatant was filtrated with a 0.2 μm PTFE filter to obtain a saturated solution. The obtained solution was dried under reduced pressure to calculate the dissolvability of the compound to each solvent.
# The evaluation criteria in Table 1 are as follows.
# A: 0.5% by mass≦Dissolvability B: 0.1% by mass≦Dissolvability<0.5% by mass C: 0.005% by mass≦Dissolvability<0.1% by mass D: Dissolvability<0.005% by mass
# [2] = Solubility of annealed thin film in solvents; assay type: physicochemical; conditions: chloroform, THF, toluene, etc. at 25° C.; film after annealing 30 min at 150° C.
# Description: Each (5 mg) of Ex. 1 compound and Ex. 2 compound synthesized in Synthesis Examples 1 and 2 was dissolved in THF, so that the concentration of the compound became 0.1% by mass, and the mixture was filtrated using a 0.2 μm-filter to prepare a solution. Onto a N-type silicon substrate having a 300 nm-thick thermally-oxidized film, which had been soaked in concentrated sulfuric acid for 24 hours, 100 μL of the prepared solution was added dropwise with a pipette, and a […] liquid droplet of the prepared solution was jetted 50 times using an inkjet apparatus (head; product of Ricoh Printing Systems, Ltd.). The thus-treated substrate was covered with a petri dish and left to stand still until the solvent was evaporated to thereby form a thin film. […] Next, the thin film was subjected to annealing for 30 min at 150° C. in an argon atmosphere.
# After annealing, a plurality of colored domains were observed under the polarization microscope, and it was confirmed that a smooth and crystalline film was obtained. These films were obtained because each of Ex. 1 compound and Ex. 2 compound serving as precursors lost an ester group (i.e., a soluble group) and converted to Compound 24 having stronger intermolecular interaction, and became crystalline in the film. The thin film was insoluble in chloroform, THF, toluene, etc. at 25° C.
"Dissolvability, solvent THF [1]","Dissolvability, solvent Toluene [1]",solubility of thin film [2],SMILES,"Dissolvability, solvent Anisole [1]"
A (0.5% by mass≦Dissolvability),A (0.5% by mass≦Dissolvability),–,CCCCCC(=O)OC1Cc2cc(C#Cc3ccccc3)ccc2-c2ccc(C#Cc3ccccc3)cc21 (stereo not shown) [Ex. 12 compound],A (0.5% by mass≦Dissolvability)
A (0.5% by mass≦Dissolvability),A (0.5% by mass≦Dissolvability),–,CC(C)(C)C(=O)OC1Cc2cc3c(cc2-c2ccc4ccccc4c21)CC(OC(=O)C(C)(C)C)c1c-3ccc2ccccc12 (stereo not shown) [Ex. 8 compound],A (0.5% by mass≦Dissolvability)
D (Dissolvability<0.005% by mass),D (Dissolvability<0.005% by mass),–,c1cc2ccc3cc4ccc5cc6c(ccc7cc8ccc9cccc%10ccc(c76)c8c9%10)cc5c4c4ccc(c1)c2c34 [Compound (28)],D (Dissolvability<0.005% by mass)
D (Dissolvability<0.005% by mass),D (Dissolvability<0.005% by mass),–,C(#Cc1cc2sc3cc4c(cc3c2s1)sc1cc(C#Cc2ccc3ccccc3c2)sc14)c1ccc2ccccc2c1 [Compound (30)],D (Dissolvability<0.005% by mass)
A (0.5% by mass≦Dissolvability),A (0.5% by mass≦Dissolvability),–,COC1CC=Cc2ccc(-c3cc4sc(-c5ccc6c(c5)C(OC)CC=C6)cc4s3)cc21 (stereo not shown) [Ex. 3 compound],B (0.1% by mass≦Dissolvability<0.5% by mass)

# The remaining lines, values behind:
SMILES,"Dissolvability, solvent THF [1]","Dissolvability, solvent Toluene [1]",solubility of thin film [2],"Dissolvability, solvent Anisole [1]"
CCCCC(CC)C(=O)OC1Cc2ccccc2-c2c1cc1ccc3c4c(cc5ccc2c1c53)C(OC(=O)C(CC)CCCC)Cc1ccccc1-4 (stereo not shown) [Ex. 7 compound],A (0.5% by mass≦Dissolvability),B (0.1% by mass≦Dissolvability<0.5% by mass),–,B (0.1% by mass≦Dissolvability<0.5% by mass)
c1ccc2cc3c(ccc4c3ccc3c4ccc4c5ccc6cc7ccccc7cc6c5ccc43)cc2c1 [Compound (29)],D (Dissolvability<0.005% by mass),D (Dissolvability<0.005% by mass),–,D (Dissolvability<0.005% by mass)
c1ccc2c(c1)ccc1cc3ccc4c5c(ccc6ccccc65)cc5ccc(c12)c3c54 [Compound (26)],D (Dissolvability<0.005% by mass),D (Dissolvability<0.005% by mass),–,D (Dissolvability<0.005% by mass)
c1ccc2c(c1)ccc1c3cc4sc5c6ccccc6ccc5c4cc3sc21 [Compound (25)],D (Dissolvability<0.005% by mass),D (Dissolvability<0.005% by mass),–,D (Dissolvability<0.005% by mass)
C(#Cc1ccc2c(ccc3cc(C#Cc4ccccc4)ccc32)c1)c1ccccc1 [Compound (31)],B (0.1% by mass≦Dissolvability<0.5% by mass),C (0.005% by mass≦Dissolvability<0.1% by mass),–,C (0.005% by mass≦Dissolvability<0.1% by mass)
c1ccc2c(c1)ccc1c3cc4ccc5c6ccccc6ccc5c4cc3ccc21 [Compound (27)],D (Dissolvability<0.005% by mass),D (Dissolvability<0.005% by mass),–,D (Dissolvability<0.005% by mass)
CCCCCC(=O)OC1CC=Cc2cc3c(ccc4c3ccc3c4ccc4c5ccc6cc7c(cc6c5ccc43)C=CCC7OC(=O)CCCCC)cc21 (stereo not shown) [Ex. 10 compound],A (0.5% by mass≦Dissolvability),B (0.1% by mass≦Dissolvability<0.5% by mass),–,B (0.1% by mass≦Dissolvability<0.5% by mass)
c1ccc2cc(-c3cc4sc(-c5ccc6ccccc6c5)cc4s3)ccc2c1 [Compound (24)],D (Dissolvability<0.005% by mass),D (Dissolvability<0.005% by mass),insoluble,D (Dissolvability<0.005% by mass)
